Reference: patent publication US4465685A, “Antiinflammatory pyrazole thioureas” (Burroughs Wellcome Co., priority 1980, dated 1984)

Key:
cyclo-oxygenase = assay: enzyme assay (Blackwell and Flower), inhibition of cyclo-oxygenase; format: biochemical; details: read-out: ED50 Cyclo-oxygenase
lipoxygenase = assay: enzyme assay (Blackwell and Flower), inhibition of lipoxygenase; format: biochemical; details: read-out: ED50 Lipoxygenase

## O=C(NC1=NN(c2cccc(C(F)(F)F)c2)CC1)Nc1ccccc1 [Example 1, 3-(N^2-phenylureido)-1-(3-trifluoromethylphenyl)-2-pyrazoline]
cyclo-oxygenase
  IC50: 3000 nM
lipoxygenase
  IC50: 5000 to 10000 nM

## CNC(=O)NC1=NN(c2cccc(C(F)(F)F)c2)CC1 [Example 2, 3-(N^2-methylureido)-1-(3-trifluoromethylphenyl)-2-pyrazoline]
cyclo-oxygenase
  IC50: 3000 nM
lipoxygenase
  IC50: 3000 nM

## CNC(=S)NC1=NN(c2cccc(C(F)(F)F)c2)CC1 [Example 3, 3-(N^2-methylthioureido)-1-(3-trifluoromethylphenyl)-2-pyrazoline]
cyclo-oxygenase
  IC50: 1000 nM
lipoxygenase
  IC50: 1000 nM

## CN=C(NC1=NN(c2cccc(C(F)(F)F)c2)CC1)SC [Example 5, 3-(N^2,S-dimethylisothioureido)-1-(3-trifluoromethylphenyl)-2-pyrazoline hydriodide monohydrate]
cyclo-oxygenase
  IC50: 1000 nM
lipoxygenase
  IC50: 1000 nM

## CNC(=S)NC1=NN(c2ccc(Cl)cc2)CC1 [Example 6, 3-(3-methylthioureido)-1-(4-chlorophenyl)-2-pyrazoline]
cyclo-oxygenase
  IC50: 5000 nM
lipoxygenase
  IC50: 3000 nM

## CCCCNC(=S)NC1=NN(c2cccc(C(F)(F)F)c2)CC1 [Example 8, 3-(3-butylthioureido)-1-(3-trifluoromethylphenyl)-2-pyrazoline]
cyclo-oxygenase
  IC50: 10000 nM
lipoxygenase
  IC50: 10000 nM

## CN=C(NC1=NN(c2ccc(Cl)cc2)CC1)SC [Example 9, N,S-dimethyl-N^2 -/1-(4-chlorophenyl)-2-pyrazoline-3-yl/isothiourea hydriodide]
cyclo-oxygenase
  IC50: 10000 nM
lipoxygenase
  IC50: 10000 nM

## CNC(=S)NC1=NN(c2ccc3ccccc3c2)CC1 [Example 10, 3-(3-methylthioureido)-1-(2-naphthyl)-2-pyrazoline]
cyclo-oxygenase
  IC50: 250 nM
lipoxygenase
  IC50: 1000 nM

## CNC(=S)NC1=NN(c2cnc3ccccc3c2)CC1 [Example 13, 3-(3-Methylthioureido)-1-(3-quinolyl)-2-pyrazoline]
cyclo-oxygenase
  IC50: 10000 nM
lipoxygenase
  IC50: 10000 nM

## CNC(=S)NC1=NN(c2ccccc2Cl)CC1 [Example 14, 1-(2-Chlorophenyl)-3-(3-methylthioureido)-2-pyrazoline]
cyclo-oxygenase
  IC50: 10000 nM
lipoxygenase
  IC50: 10000 nM

## CN=C(NC1=NN(c2ccc3ccccc3c2)CC1)SC [Example 17, N^1,S-Dimethyl-N^2 -/1-(2-naphthyl)-2-pyrazolin-3-yl/isothiourea hydriodide]
cyclo-oxygenase
  IC50: 1000 nM
lipoxygenase
  IC50: 1000 nM
